For data set [1], the system named is WT mouse spleen basophils (splenocytes). Kind of data set: CXCR4 expression on mouse spleen basophils ex vivo. Type of data set: cell-based. Conditions: for CXCR4 expression on other WT splenocytes including T and B cells: data not shown; for CXCR4 expression on spleen WT basophils ex vivo: specific agonists, 24 hours ex vivo. The text has this:
(a) Ex vivo migration of basophils from whole WT or Lyn^−/− splenocytes to CXCL12. (b) CXCR4 expression levels on basophils from the indicated compartments in aged WT (n=16) and Lyn^−/− (n=14) animals. Data are normalized to the mean CXCR4 expression level of WT blood basophils. Statistical analyses placed directly above each bar compared the value for one given compartment to the blood compartment of the corresponding genotype. Statistical analyses between both genotypes for each compartment are also indicated. (c) Basophil number per peritoneum in young WT mice 24 hours after intraperitoneal (ip) injection of PBS or CXCL12 and compared to steady state (−) values (n=13/15/5, respectively). (d) CXCR4 expression levels on basophils from mesenteric lymph nodes (mLN) of young Lyn^−/− mice 24 hours after PBS or PGD2 ip injection normalized to PBS injected mice values' mean. (e) Basophil number in mLN of young Lyn^−/− mice 24 hours after ip injection of the indicated compound(s). (f) CXCR4 expression levels on spleen basophils from 15 weeks old WT mice incubated ex vivo for 24 hours with the indicated compound and normalized to the control values' mean. […] Basophils number and CXCR4 expression were assessed by flow cytometry. Statistical analyses were by unpaired t test with Welch's correction (a-e) and by paired Student t test (f).
(a-b) Relative CXCR4 expression levels on basophils (defined as CD19^−TCRβ^−CD3^−CD49b+FcεRIα^+CD123^+)CD45^lo and T cells (defined as CD45^+CD3^+TCRβ^+ cells) in splenocytes incubated 4 hours without (−) or with the indicated concentration of N6,2′-O-dibutyryl-adenosine 3′:5′-cyclic monophosphate (db-cAMP) or 1 μM PGD2 as determined by flow cytometry. Statistical analyses were by paired Student t tests. NS: not significant, *: P<0.05, **: P<0.01, ***: P<0.001. (c) Relative CXCR4 expression levels on spleen basophils (defined as in (a)) incubated 4 hours without (0) or with the indicated concentration (nM) of the indicated compound(s). DK-PGD2: 13,14-dihydro-15-keto-PGD2 (PTGDR-2 specific agonist); BW245c: 3-(3-Cyclohexyl-3-hydroxypropyl)-2,5-dioxo-(R*,S*)-(±)-4-imidazolineheptanioc acid (PTGDR-1 specific agonist) as determined by flow cytometry. Statistical analysis was by two-ways ANOVA followed by a Tukey's multiple comparisons test. (a-c) Data are normalized to control value mean (per group, n=4 to 8). Data are expressed as mean+s.e.m. All experiments were realized with splenocytes from 8-12 weeks old WT mice.
(§1) Human basophils and mouse splenocytes were cultured in culture medium (RPMI 1640 with Glutamax and 20 mM HEPES, 1 mM Na-pyruvate, non-essential amino acids 1× (all from Life Technologies, Saint-Aubin, France), 100 μg/ml streptomycin and 100 U/ml penicillin (GE Healthcare, Vélizy, France) and 37.5 μM β-mercaptoethanol (Sigma-Aldrich, MO)) supplemented with 20% heat-inactivated fetal calf serum at 37° C. and 5% CO2. 18 hours-long stimulation prior to migration assays were done in culture medium at 1×10^6 cells per mL by adding 1 nM of IL-3 (Peprotech), 1 μM of prostaglandin D2 (PGD2), 1 μM of the PTGDR-1 specific agonist BW245c, 1 μM of the PTGDR-2 specific agonist 13,14-dihydro-15-keto Prostaglandin D2 (DK-PGD2) (all from Cayman chemicals) or 5 ng/mL of anti-IgE (mouse anti-human IgE or rat anti-mouse IgE, both from Thermo Scientific). All cells were washed twice before any migration assay. Control conditions were always with the same vehicle concentration as stimulated conditions.

Data set [2] concerns WT mice. The experiment in a line: CXCL12-induced basophil in vivo migration assay. To be noted: intraperitoneal injection, 24 hours. More on the design: species or system mouse.
The target of data set [3] is CXCR4 (Homo sapiens, UniProt P61073). To be noted: cited from earlier work.
CXCR4, sequence (P61073 whole entry, species assumed): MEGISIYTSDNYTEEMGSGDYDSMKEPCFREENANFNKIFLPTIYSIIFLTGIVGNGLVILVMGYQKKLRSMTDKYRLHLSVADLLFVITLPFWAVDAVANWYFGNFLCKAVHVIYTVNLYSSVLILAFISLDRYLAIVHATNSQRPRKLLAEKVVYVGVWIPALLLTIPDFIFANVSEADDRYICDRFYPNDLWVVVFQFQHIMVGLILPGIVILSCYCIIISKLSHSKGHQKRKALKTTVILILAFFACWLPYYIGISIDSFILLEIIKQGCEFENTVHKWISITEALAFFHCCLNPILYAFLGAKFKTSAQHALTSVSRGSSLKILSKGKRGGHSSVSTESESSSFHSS
Data set [4] relates to Lyn−/− mice. The experiment in a line: PGD2-induced basophil in vivo migration assay. More on the design: species or system mouse.
For data set [5], the system named is purified human basophils. Kind of data set: 18 hours stimulation of purified human basophils, marker expression and migration towards CXCL12. Type of data set: cell-based.
Description: Human basophils were purified to >95% by negative selection with the Human Basophils Enrichment kit (Stemcell Technologies, Grenoble, France) for culture, stimulation and chemotaxis experiments. In some chemotaxis experiments, human basophils were enriched to 3-5% by negative selection with the Human PE positive selection kit (Stemcell Technologies) by using a cocktail of PE-conjugated anti-CD3, CD19 and CD89 (BioLegend). These kits were used following manufacturer instructions.
as §1
Migration assays were performed in culture medium supplemented with 0.1% bovine serum albumin (BSA, Sigma-Aldrich) in Transwell 5 μm polycarbonate permeable support 6.5 mm inserts (Corning, N.Y., N.Y.) for 3 hours at 37° C. and 5% CO2 with 1×10^5 purified basophils or 2×10^5 enriched basophils at 1×10^6 cells per mL. Purified or enriched basophils from the upper and bottom chambers were counted at the end of the assay. Basophil content and phenotype was determined by flow cytometry by analyzing more than 100 basophils. Purification or enrichment of human basophils didn't show any difference in the measured migration for all tested chemokines. Migration was defined as the ratio between the number of basophils in the bottom chamber and the number of basophils in the upper plus the bottom chambers. Spontaneous migration was defined as the migration observed without any chemokine in the bottom chamber. Corrected migration was defined as the difference between specific and spontaneous migration. For migration assays the following concentrations (known to be optimal) were used for each compound: Human IL-3: 300 pM (Peprotech), human CCL3, CCL5, and CXCL12: 50 nM; CXCL2 (all from BioLegend) and PGD2 (Cayman chemicals): 100 nM. Migration to human CCL3, CCL5, CXCL2, and PGD2 was done in the presence of IL-3 at 300 pM in both chambers. Migration with IL-3 represents chemokinetism: IL-3 was added in both chambers to the same concentration and compared to the spontaneous migration observed without IL-3. Effects of 24 hours incubation with IL-3 or PGD2 (as described above) on basophil apoptosis were estimated by using the FITC Annexin V Apoptosis Detection Kit from BD Biosciences and used accordingly to manufacturer's instructions.

Data set [6] has as its system 12 weeks old Lyn−/− mice. Kind of data set: Acceleration of lupus-like disease development by repeated PGD2 injections.
Description: (a,b) Proportion of basophils (CD19^−TCRβ^−CD49b^+FcεRIα^+CD123^+)CD45^lo) among singlets living CD45^+ cells in mesenteric (a) and other (cervical, brachial and inguinal) lymph nodes (b) from 10 to 12 weeks-old Lyn^−/− mice injected over ten days with PBS (open circles) or PGD2 alone (open squares), and PGD2 injected and basophil depleted (MAR-1) (open diamonds) or not (IgG) (open triangles) as described in the methods. (c) IA-IE expression levels on LN basophils from mice as in (b). […] (d,e) Proportion of short lived plasma cells CD19^+CD138^+ among singlets living CD45^+ cells in spleen (d) and lymph nodes (e) in the same mice as in (b). (f) Representative immunofluorescence staining for C3 and IgG deposits in kidneys from mice as indicated in (b) (scale bar=1 mm) and their corresponding quantifications in PBS (n=3), PGD2 (n=4), PGD2+control IgG (n=3) and PGD2+MAR-1 (n=3) injected mice. (g) Fold increase in urine albumin/creatinine ratio before and after PBS or PGD2 10 days-long treatment. (a-e) Basophil, plasma cell numbers and IA-IE expression levels were assessed by flow cytometry. (a-g) Data are expressed as means±s.e.m. […] One representative out of three independent experiments is shown.
For acceleration of disease development by PGD2 injections, 12 weeks old Lyn^−/− mice were injected ip with 20 nmoles of PGD2 or vehicle in PBS, every two days for 10 days, for a total of 6 injections. Mice were analyzed the day following the last injection. […] Cell viability was assessed by the utilization of Ghost Dye Violet 510 (Tonbo, San Diego, Calif.).
Quantification of C3 and IgG deposits was realized by using ImageJ software (v1.49p, NIH, USA). A minimum of 20 glomeruli was quantified per kidney. For assessment of kidney function the albumin/creatinine ratio (ACR) was determined. Urine was collected from each mouse before and after treatment. The albumin concentration was measured with a mouse albumin ELISA (Bethyl laboratories, Montgomery, Tex.). A creatinine assay (R&D systems, Minneapolis, Minn.) was used to determine urine creatinine concentrations. Results are expressed as a fold increase corresponding to the ratio of the ACR after/before treatment.
[7] abbreviates: ip every two days over ten days.

On to `CCCCCC(=O)CCC1C(=O)CC(O)C1C/C=C\CCCC(=O)O` (stereo not shown) [DK-PGD2, 13,14-dihydro-15-keto-PGD2], for which, in data set [1], the “CXCR4 expression on other WT splenocytes including T and B cells” value is reported as “significant but much lower increase”; the “CXCR4 expression on spleen WT basophils ex vivo” value is on record as “up-regulation”.

Regarding “CXCL12: C—X—C motif Ligand 12, chemokine; murine CXCL12 injected ip”, in data set [2], the “in vivo basophil migration to the injection site and draining mesenteric lymph nodes” value is on record as “induced”.

Take `c1cc(CN2CCCNCCNCCCNCC2)ccc1CN1CCCNCCNCCCNCC1` [AMD3100]: the “known effects of CXCR4 antagonism” value in data set [3] was “induce a release of hematopoietic stem cells and interfere with homeostatic functions”. Also, the “PGD2-induced basophil recruitment in SLOs and peritoneum” value in data set [4] (co-injection with PGD2, ip) was “completely abolished”.

With “CXCL2: chemokine known to have an effect on basophils”, in data set [5] (data not shown), the “increased CXCR4 externalization ex vivo as PGD2 did” value is on record as “None”.

Consider `CCCC(=O)Nc1ncnc2c1ncn2[C@@H]1O[C@@H]2COP(=O)(O)O[C@H]2[C@H]1OC(=O)CCC` [db-cAMP, N6,2′-O-dibutyryl-adenosine 3′:5′-cyclic monophosphate], for which, in data set [1] (4 hours ex vivo), the “CXCR4 externalization by mouse WT spleen basophils” value is “externalized” and the “sensitivity of basophils versus T cells to the compound (CXCR4 externalization)” value is 100 fold.

For `CCCCC[C@H](O)/C=C/[C@H]1C(=O)C[C@H](O)[C@@H]1C/C=C\CCCC(=O)O` [PGD2, 9α,15S-dihydroxy-11-oxo-prosta-5Z,13E-dien-1-oic acid], in data set [1] (1 μM, 4 hours ex vivo), the “CXCR4 externalization by T cells” value is listed as “unable”. Further, the basophil apoptosis entry in data set [5] (1 μM, data not shown) is given as “without inducing”. Besides, the “CXCR4 expression on basophils” value in data set [5] (18 hours priming, 1 μM PGD2 or sub-optimal anti-IgE) was “enhanced”. For the same molecule, the PTGDR-2 internalization result in data set [5] (18 hours, 1 μM, data not shown) is on record as “induced”. In addition, the “FcεRIα expression on basophil surface” value in data set [5] (PGD2 priming, data not shown) is “slight increase”. Besides, the “migration towards CXCL12” value in data set [5] (after 18 hours priming) was “enhanced”. Moreover, the “CXCR4 surface expression of other immune cell types” value in data set [6] (data not shown) was “didn't show any significant increase”. In addition, the albuminuria entry in data set [6] (end of protocol, versus PBS-injected) is listed as “increased albuminuria”. In data set [6] (setting [7]), the “CD19+CD138+ plasma cells in SLOs” value was “increased proportion”; the “IA-IE expression on basophils” value is “increased”; the “basophil accumulation in SLOs” value is listed as “accumulated systemically”; the “immune complexes in the kidney (C3 and IgG deposition)” value is on record as “increased deposition”. Besides, the “basophil CXCR4 expression levels” value in data set [6] (ip every two days over ten days, data not shown) is listed as “increased”. In addition, in data set [4] (i.p. injection, 24 hours), the “CXCR4 expression on mLN basophils” value is “increased”; the “basophil accumulation in SLOs and peritoneum” value is on record as “drove their accumulation”. Besides, the “peripheral basopenia compared to steady state” value in data set [4] (ip injection, data not shown) is recorded as “significant, but transient”.

As to `O=C(O)CCCCCCC1C(=O)NC(=O)N1CCC(O)C1CCCCC1` (racemic) [BW245c, 3-(3-Cyclohexyl-3-hydroxypropyl)-2,5-dioxo-(R*,S*)-(±)-4-imidazolineheptanioc acid], in data set [1], the “CXCR4 expression on other WT splenocytes including T and B cells” value is given as “significant but much lower increase”; the “CXCR4 expression on spleen WT basophils ex vivo” value is reported as “up-regulation”.

B1: CCL3: chemokine known to have an effect on basophils (protein, UniProt P10147 24-92, looked up)
C-C motif chemokine 3: SLAADTPTACCFSYTSRQIPQNFIADYFETSSQCSKPGVIFLTKRSRQVCADPSEEWVQKYVSDLELSA
For B1, the “increased CXCR4 externalization ex vivo as PGD2 did” value in data set [5] (data not shown) is on record as “None”.

B2: CCL5: chemokine known to have an effect on basophils (protein, UniProt P13501 24-91, looked up)
C-C motif chemokine 5: SPYSSDTTPCCFAYIARPLPRAHIKEYFYTSGKCSNPAVVFVTRKNRQVCANPEKKWVREYINSLEMS
Turning to B2, the “increased CXCR4 externalization ex vivo as PGD2 did” value in data set [5] (data not shown) is reported as “None”.

The values are drawn from patent US11559513B2, “PTGDR-1 and/or PTGDR-2 antagonists for preventing and/or treating systemic lupus erythematosus” (INSTITUT NATIONAL DE LA SANTE ET DE LA RECHERCHE MEDICALE …, priority 2015, dated 2023).
